Columns and labels:
FLK-1 receptor = target: T1, FLK-1 receptor (Mus musculus, UniProt P35918); assay: FLK-1 ELISA (kinase activity of the FLK-1 receptor in FLK-1/NIH3T3 cells, VEGF stimulated); type: cell-based; set-up: concentration or dose not given beside the values
T1 construct: expressed in transfected cells; host or cells: NIH3T3 C7#3
Method in brief: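 FLK-1-expressing NIH3T3 C7#3 cells, starved overnight in 0.1% FBS medium, were treated with compounds at a 1:200 final dilution (0.5% DMSO) for 2 h at 37 °C, with VEGF stimulation. FLK-1 kinase activity was read by ELISA on anti-rabbit IgG plates using affinity-purified anti-FLK-1 antiserum.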

MET = MET biochemical kinase assay; set-up: species or system human; concentration or dose not given beside the values
Method in brief: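 In this format, tyrosine phosphorylation of plate-captured human MET is followed in vitro after compound addition in ATP/divalent-cation buffer, detected by anti-phosphotyrosine-HRP with TMB substrate.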

T1 sequence (P35918 20-1345): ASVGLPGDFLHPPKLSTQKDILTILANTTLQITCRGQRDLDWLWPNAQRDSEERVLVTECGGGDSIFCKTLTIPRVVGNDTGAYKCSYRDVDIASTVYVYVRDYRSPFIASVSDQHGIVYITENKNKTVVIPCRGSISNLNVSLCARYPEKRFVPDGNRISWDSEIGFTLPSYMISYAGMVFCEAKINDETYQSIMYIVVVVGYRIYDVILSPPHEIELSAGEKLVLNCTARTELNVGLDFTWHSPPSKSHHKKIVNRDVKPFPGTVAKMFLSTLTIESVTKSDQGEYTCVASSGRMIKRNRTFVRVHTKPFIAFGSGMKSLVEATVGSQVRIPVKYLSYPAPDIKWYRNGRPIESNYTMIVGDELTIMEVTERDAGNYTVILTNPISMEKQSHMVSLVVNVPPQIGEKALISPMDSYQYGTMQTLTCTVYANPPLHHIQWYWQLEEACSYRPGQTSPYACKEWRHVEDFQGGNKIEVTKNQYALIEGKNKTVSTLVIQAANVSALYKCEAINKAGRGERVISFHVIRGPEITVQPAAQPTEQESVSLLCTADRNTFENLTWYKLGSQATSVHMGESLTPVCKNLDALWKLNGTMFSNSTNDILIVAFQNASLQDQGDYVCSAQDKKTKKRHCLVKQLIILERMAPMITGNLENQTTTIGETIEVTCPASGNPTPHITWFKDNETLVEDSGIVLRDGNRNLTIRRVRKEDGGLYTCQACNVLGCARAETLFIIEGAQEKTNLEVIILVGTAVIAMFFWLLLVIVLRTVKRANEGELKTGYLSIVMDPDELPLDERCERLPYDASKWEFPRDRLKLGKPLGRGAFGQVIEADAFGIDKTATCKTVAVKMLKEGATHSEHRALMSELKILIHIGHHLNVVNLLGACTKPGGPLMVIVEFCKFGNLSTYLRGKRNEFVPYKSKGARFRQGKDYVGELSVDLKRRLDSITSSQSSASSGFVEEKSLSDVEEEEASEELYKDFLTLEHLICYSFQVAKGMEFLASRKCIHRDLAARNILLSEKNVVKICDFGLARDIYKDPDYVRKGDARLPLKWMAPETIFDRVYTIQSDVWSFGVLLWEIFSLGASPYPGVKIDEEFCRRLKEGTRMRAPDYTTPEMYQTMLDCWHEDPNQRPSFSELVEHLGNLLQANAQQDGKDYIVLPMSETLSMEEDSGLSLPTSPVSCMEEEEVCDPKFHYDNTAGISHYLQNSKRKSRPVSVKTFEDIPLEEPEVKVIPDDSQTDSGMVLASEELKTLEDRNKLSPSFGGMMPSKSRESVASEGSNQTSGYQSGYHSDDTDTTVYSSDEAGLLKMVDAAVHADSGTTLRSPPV

SMILES | Fik Kinase %Inhibition (FLK-1 receptor) | Met Kinase % Inhibition (MET)
O=C1Nc2ccc(CCCl)cc2C1=Cc1c(F)cccc1C(F)(F)F [10728/G09] | 6.8% | 22.2%
COc1ccc2ccccc2c1C=C1C(=O)Nc2c(Br)cc(Br)cc21 [10729/A02] | 15.5% | 28.1%
O=C1Nc2ccc(CCCl)cc2C1=Cc1cc(C(F)(F)F)ccc1F [10728/G08] | 21.4% | 42.3%
O=C(O)COc1ccccc1C=C1C(=O)Nc2ccc(CCCl)cc21 [10728/G10] | 10.4% | 27.9%
O=C1Nc2c(Br)cc(Br)cc2C1=Cc1ccco1 [10718/A10] | 23.4% | 77.9%
O=C1Nc2ccc(S(=O)(=O)Nc3ccc(C(F)(F)F)cc3)cc2C1=Cc1cccc(Oc2ccccc2)c1 [10729/E06] | 12.1% | -0.7%
CNS(=O)(=O)c1ccc2c(c1)C(=Cc1cc(OC)c3c(c1)OCO3)C(=O)N2 [10728/D11] | 15.9% | 52.5%
CCOC(=O)c1cc(C=C2C(=O)Nc3ccc(I)cc32)oc1C [10718/B06] | 16.5% | 78.4%
COc1cc(C=C2C(=O)Nc3ccc(CCCl)cc32)cc(OC)c1 [10728/G04] | 21.8% | 20.9%
O=C1Nc2ccc(CCCl)cc2C1=Cc1ccc2c(c1)Cc1ccccc1-2 [10728/G06] | 13.5% | 25.3%
Cc1c(Br)ccc2c1C(=Cc1ccncc1)C(=O)N2 [10729/C09] | -26.4% | 60.4%
COc1cc(N(C)C)ccc1C=C1C(=O)Nc2ccc(S(=O)(=O)Nc3ccc(C(F)(F)F)cc3)cc21 [10728/E05] | 17.4% | 53.4%
CSc1ccc(C=C2C(=O)Nc3ccc(I)cc32)cc1 [10729/B04] | 0.1% | 43.8%
O=C1Nc2c(Br)cc(Br)cc2C1=Cc1ccc(N2CCCC2)cc1 [10729/A10] | 0.7% | 34.8%
COc1ccc(C=C2C(=O)Nc3ccc(I)cc32)c2ccccc12 [10729/B03] | 11.2% | 57.3%
COc1ccc(OC)c(C=C2C(=O)Nc3ccc(S(=O)(=O)NN4CCOCC4)cc32)c1 [10728/F02] | 2.9% | 25.6%
Cc1c(Br)ccc2c1C(=CC1C=CCCC1)C(=O)N2 (stereo not shown) [10729/C11] | 10.4% | 41.3%
O=C1Nc2ccc(I)cc2C1=Cc1cccc(Oc2ccccc2)c1 [10729/B06] | 2.0% | 61.1%
O=C1Nc2c(Br)cc(Br)cc2C1=Cc1cccnc1 [10729/A08] | -13.3% | 48.1%
O=C1Nc2c(Br)cc(Br)cc2C1=Cc1ccncc1 [10729/A09] | 0.4% | 80.3%

Reference: patent publication EP1247803A2, “Indolinone compounds suitable for modulation of protein kinases” (Sugen, Inc., priority 1996, dated 1998)
